Assay results taken from the OligoGym collection.
Where “and” joins values, the source holds several entries; their conditions need not be identical. Equal values may be shown once. After the bases stand the sugars from the 5' end (letter, count) and the backbone: PS all phosphorothioate, else s phosphorothioate and o phosphodiester by linkage. Methylation of C is not given here. e = 2'-O-(2-methoxyethyl) (MOE); k = constrained ethyl (cEt); d = 2'-deoxy (DNA)

Biological target: SOD1
Details: ASO

Row | Sequence | target mRNA inhibition (HepG2, 3 µM) [%] | target mRNA inhibition (HepG2, 5 µM) | also measured
1 | TCTACAGCTAGCAGGAT (sugars e3 k2 d7 k2 e3, PS) | 51 | – | –
2 | TCTGACAAGTTTAATAC (sugars e2 k2 d9 k2 e2, PS) | – | 20% | –
3 | TCTGCTCGAAATTGATG (sugars e3 k2 d7 k2 e3, PS) | 34 | – | –
4 | TCTGCTTTTTCATGGAC (sugars e3 k2 d7 k2 e3, PS) | 55 | – | –
5 | TCTGTGATTTAAGTCTG (sugars e2 k2 d9 k2 e2, PS) | – | 49% | –
6 | TCTGTGATTTAAGTCTGGCA (sugars e5 d10 e5, PS) | – | 44% | –
7 | TCTTCCAAGTGATCATA (sugars e2 k2 d8 k2 e3, PS) | – | 33% | –
8 | TCTTCCAAGTGATCATA (sugars e2 k2 d9 k2 e2, PS) | – | 43% | –
9 | TCTTTGTCAGCAGTCACATT (sugars e5 d10 e5, PS) | – | 20% and 11% | –
10 | TCTTTTAATAGCCTCAT (sugars e2 k2 d8 k2 e3, PS) | – | 52% | –
11 | TCTTTTAATAGCCTCAT (sugars e2 k2 d9 k2 e2, PS) | – | 56% | –
12 | TGAACATGGAATCCATG (sugars e3 k2 d7 k2 e3, PS) | 2 | – | –
13 | TGACAAGTTTAATACCC (sugars e2 k2 d9 k2 e2, PS) | – | 52% | –
14 | TGACAAGTTTAATACCC (sugars e3 k2 d7 k2 e3, PS) | 27 | – | –
15 | TGATCATAAATCAGTTT (sugars e2 k2 d8 k2 e3, PS) | – | 49% | –
16 | TGCAACGGAAACCCCAGACG (sugars e5 d10 e5, PS) | – | – | target mRNA inhibition (HepG2, 4 µM): 21%
17 | TGCCATACAGGGTTTTT (sugars e2 k2 d8 k2 e3, PS) | – | 21% | –
18 | TGCCTCTCTTCATCCTT (sugars e3 k2 d7 k2 e3, PS) | 6 | – | –
19 | TGCTTTTTCATGGACCA (sugars e3 k2 d7 k2 e3, PS) | 51 | – | –
20 | TGGATTCTTTTAATAGCCTC (sugars e5 d10 e5, PS) | – | 13% | –
21 | TGGCAAAATACAGGTCA (sugars e2 k2 d9 k2 e2, PS) | – | 43% | –
22 | TGGGCGATCCCAATTAC (sugars e2 k2 d8 k2 e3, PS) | – | – | target mRNA inhibition (HepG2, 4 µM): 19%

Row | Sequence | target mRNA inhibition (HepG2, 3 µM) [%] | target mRNA inhibition (HepG2, 5 µM) | also measured
23 | TGGTCTCCTGAGAGTGAGAT (sugars e5 d10 e5, PS) | – | 24% | –
24 | TGTGATTTAAGTCTGGC (sugars e2 k2 d8 k2 e3, PS) | – | 45% | –
25 | TGTGATTTAAGTCTGGCAAA (sugars e5 d10 e5, PS) | – | 34% | –
26 | TGTTTATTGGGCGATCC (sugars e3 k2 d7 k2 e3, PS) | 21 | – | –
27 | TTAAGTCTGGCAAAATA (sugars e2 k2 d8 k2 e3, PS) | – | 27% | –
28 | TTAATGTTTATCAGGAT (sugars e2 k2 d8 k2 e3, PS) | 90 | – | target mRNA inhibition (HepG2, 0.1875 µM): 50%; target mRNA inhibition (HepG2, 0.75 µM): 86%; target mRNA inhibition (HepG2, 4 µM): 90%; target mRNA inhibition (HepG2, 12 µM): 97%
29 | TTAATGTTTATCAGGAT (sugars e2 k2 d9 k2 e2, linkages s1 o3 s9 o1 s2) | – | – | target mRNA inhibition (A431, 0.12 µM): 12%; target mRNA inhibition (A431, 0.6 µM): 48%; target mRNA inhibition (A431, 3 µM): 54%; target mRNA inhibition (A431, 15 µM): 72%
30 | TTAATGTTTATCAGGAT (sugars ekekddddddddeeeee, linkages s1 o2 s9 o2 s2) | – | – | target mRNA inhibition (A431, 0.062 µM): 6%; target mRNA inhibition (A431, 0.185 µM): 21%; target mRNA inhibition (A431, 0.556 µM): 44%; target mRNA inhibition (A431, 1.667 µM): 76%; target mRNA inhibition (A431, 5 µM): 68%; target mRNA inhibition (A431, 15 µM): 77%; target mRNA inhibition (SH-SY5Y, 0.062 µM): 0%; target mRNA inhibition (SH-SY5Y, 0.185 µM): 0%; target mRNA inhibition (SH-SY5Y, 0.556 µM): 34%; target mRNA inhibition (SH-SY5Y, 1.667 µM): 61%; target mRNA inhibition (SH-SY5Y, 5 µM): 81%; target mRNA inhibition (SH-SY5Y, 15 µM): 90%
31 | TTACACCACAAGCCAAA (sugars e2 k2 d9 k2 e2, PS) | – | – | target mRNA inhibition (HepG2, 4 µM): 63%
32 | TTACAGTGTTTAATGTT (sugars e3 k2 d7 k2 e3, PS) | 18 | – | –
33 | TTATTCACAGGCTTGAA (sugars e2 k2 d9 k2 e2, PS) | – | 30% | –
34 | TTATTGGGCGATCCCAA (sugars e3 k2 d7 k2 e3, PS) | 15 | – | –
35 | TTCACAGGCTTGAATGA (sugars e2 k2 d8 k2 e3, PS) | – | 20% | –
36 | TTCACAGGCTTGAATGA (sugars e3 k2 d7 k2 e3, PS) | 9 | – | –
37 | TTCATCCTTTGGCCCACCGT (sugars e5 d10 e5, PS) | 30 | – | –
38 | TTCCGAGGACTGCAACGGAA (sugars e5 d10 e5, PS) | – | – | target mRNA inhibition (HepG2, 4 µM): 5%
39 | TTCTACAGCTAGCAGGATAA (sugars e5 d10 e5, PS) | – | – | target mRNA inhibition (HepG2, 2 µM): 50%
40 | TTCTGCTCGAAATTGAT (sugars e3 k2 d7 k2 e3, PS) | 18 | – | –
41 | TTGCCCAAGTCTCCAACATG (sugars e5 d10 e5, PS) | – | 41% and 33% | –
42 | TTGGCCCACCGTGTTTTCTG (sugars e5 d10 e5, PS) | – | 35% and 26% | –
43 | TTTAATACCCATCTGTG (sugars e3 k2 d7 k2 e3, PS) | 0 | – | –
44 | TTTAATGTTTATCAGG (sugars ekddddddddekekee, linkages s1 o1 s8 o3 s2) | – | – | target mRNA inhibition (A431, 0.12 µM): 20%; target mRNA inhibition (A431, 0.6 µM): 5%; target mRNA inhibition (A431, 3 µM): 12%; target mRNA inhibition (A431, 15 µM): 33%; target mRNA inhibition (HepG2, 0.222 µM): 21%; target mRNA inhibition (HepG2, 0.667 µM): 38%; target mRNA inhibition (HepG2, 2 µM): 58%; target mRNA inhibition (HepG2, 6 µM): 81%
